Literature values as cited in US10098898B1, “Release stable mesalamine dosage forms” (Handa Pharmaceuticals, LLC, priority 2017, dated 2018).

Details: 1% aqueous solution

SMILES: O=P([O-])([O-])O.[Na+].[Na+] [disodium hydrogen phosphate]
- pH: about 9.1
